Some test systems named below: HCT-15 colon; M19-MEL melanoma; HT29 colon; A549 NSCLC; A498 renal; LXFL 529 NSCLC; HOP-92 NSCLC; SF-268 CNS; NCI-H460 lung; HS 578T breast.
Common to all, as to experiment: DTP human tumour cell line panel, 48 h

Values joined by “and” are separate entries in the source; they are usually repeats but may differ in a detail not shown here. Identical values can stand only once.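 Results reflect a 48-hour exposure of cells in 96-well plates to compound at five concentrations. At the GI50, growth is halved. TGI marks complete inhibition of growth.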 A value given as a limit tells only on which side of the number the result lay.

As for `Cn1c(N)nc(=O)c2c1N(C1OC(CO)C(O)C1O)CN2Cc1ccccc1` (stereo not given), the TGI in the assay with HCT-15 colon, with M19-MEL melanoma, in the assay on HT29 colon, in the assay on A549 NSCLC, in the assay with A498 renal and in the assay with LXFL 529 NSCLC was more than 100 µM throughout. Moreover, the TGI with HOP-92 NSCLC, in the assay with SF-268 CNS and in the assay with NCI-H460 lung was more than 100 µM each time.
Take `NC1=NN(c2ccccc2)C(=O)C1C(=O)C(=O)Nc1nccs1` (stereo not given): the TGI with HCT-15 colon, in the assay with M19-MEL melanoma, with HT29 colon, with A549 NSCLC, in the assay with A498 renal and in the assay with LXFL 529 NSCLC was more than 100 µM throughout. In addition, the TGI with HOP-92 NSCLC, in the assay with SF-268 CNS and with NCI-H460 lung was more than 100 µM each time.
Take `C/C=C(\CCOS(=O)(=O)c1ccc(C)cc1)[Si](C)(C)C`: the TGI in the assay with HCT-15 colon, in the assay with M19-MEL melanoma, in the assay with HT29 colon, in the assay on A549 NSCLC, in the assay on A498 renal and in the assay with LXFL 529 NSCLC was more than 100 µM throughout. For the same compound, the TGI with HOP-92 NSCLC, in the assay with SF-268 CNS and in the assay with NCI-H460 lung was more than 100 µM each time.
Turning to `Nc1n[n+](-c2ccccc2)no1`, the TGI with HCT-15 colon, in the assay with M19-MEL melanoma, in the assay on HT29 colon, with A549 NSCLC, with A498 renal and with LXFL 529 NSCLC was more than 100 µM in each case. In addition, the TGI is 92.9 µM with HOP-92 NSCLC, more than 100 µM with SF-268 CNS and more than 100 µM in the assay on NCI-H460 lung.
For `C[N+](C)(C)CC(=O)N/N=C(\C(=O)NC1=C(Cl)C(=O)c2ccccc2C1=O)C(C#N)c1nc(-c2ccc([N+](=O)[O-])cc2)cs1` (stereo not given), the TGI with HCT-15 colon came to 18.8 µM; with HS 578T breast, 40.6 µM; with M19-MEL melanoma, 2.2 µM; in the assay on HT29 colon it was 33.6 µM; in the assay with A549 NSCLC it was 19.4 µM; in the assay on A498 renal it was 33.3 µM. Also, the TGI in the assay with LXFL 529 NSCLC is 21.4 µM; in the assay on HOP-92 NSCLC, 29 µM; in the assay on SF-268 CNS it was 38.4 µM; with NCI-H460 lung, 25.2 µM.
Turning to `O=C(O/N=C1/CCC/C1=C\c1ccccc1)c1ccc(Cl)c(Cl)c1`, the TGI in the assay on HCT-15 colon, in the assay on M19-MEL melanoma, in the assay on HT29 colon, in the assay on A549 NSCLC, in the assay on A498 renal and in the assay on LXFL 529 NSCLC was more than 100 µM in each case. The TGI in the assay on HOP-92 NSCLC, in the assay with SF-268 CNS and with NCI-H460 lung was more than 100 µM in each case.
For `CCCCCCCCCC(=O)OCC1OC(n2cc(F)c(=O)[nH]c2=O)C(NC(=O)OCc2ccccc2)C(OC(=O)CCCCCCCCC)C1O` (stereo not given), the TGI in the assay on HCT-15 colon was more than 100 µM; with M19-MEL melanoma, more than 100 µM; in the assay on HT29 colon, 35 µM; in the assay on A549 NSCLC, more than 100 µM; with A498 renal, more than 100 µM; with LXFL 529 NSCLC it was more than 100 µM. The TGI with HOP-92 NSCLC was 36.3 µM; in the assay on SF-268 CNS it was more than 100 µM.
Regarding `O=C1C2C(C(=O)N1c1ccccc1)C1([N+](=O)[O-])C=C3c4ccccc4N(C(=O)c4ccccc4)C32C2C(=O)N(c3ccccc3)C(=O)C21` (stereo not given), the TGI in the assay with HCT-15 colon, with M19-MEL melanoma, in the assay on HT29 colon, in the assay with A549 NSCLC, with A498 renal and with LXFL 529 NSCLC was more than 100 µM in each case. In addition, the TGI in the assay on HOP-92 NSCLC, in the assay on SF-268 CNS and in the assay on NCI-H460 lung was more than 100 µM throughout.
As for `COC(=O)C12OCC34C(CC5C(C)C6=CC(=O)OC6=CC5(C)C3C(O)C1O)OC(=O)C(O)C24` (stereo not given), the GI50 in the assay on HCT-15 colon is 0.458 µM; in the assay on M19-MEL melanoma, 0.133 µM; in the assay on HT29 colon it was 1.68 µM; in the assay on A549 NSCLC it was 0.415 µM; in the assay on A498 renal, 0.266 µM; in the assay with LXFL 529 NSCLC it was 0.0379 µM. The GI50 with HOP-92 NSCLC was 0.146 µM; in the assay on SF-268 CNS it was 0.287 µM; in the assay with NCI-H460 lung it was 0.0616 µM. The TGI in the assay on HCT-15 colon is 12.9 µM; with M19-MEL melanoma, 0.723 µM and 2.2 µM; in the assay with HT29 colon, 0.674 µM; in the assay on A549 NSCLC, 23.2 µM; with A498 renal, 0.507 µM and 1.49 µM; in the assay with LXFL 529 NSCLC, 0.737 µM and 1.36 µM. The TGI in the assay on HOP-92 NSCLC was 0.525 µM and 2.33 µM; with SF-268 CNS, 3.34 µM; with NCI-H460 lung it was 0.716 µM and 1.18 µM.
Regarding `COc1ccc(/C=C2\CCC(CCN(C)C)(C3=CCCC3)C2=O)cc1Br` (stereo not given), the TGI with HCT-15 colon was found to be 15.5 µM; in the assay on M19-MEL melanoma, 7.86 µM; with HT29 colon, 7.14 µM; in the assay with A549 NSCLC, 24 µM; in the assay with A498 renal it was 23.5 µM; with LXFL 529 NSCLC it was 15.8 µM. The TGI came to 11.3 µM in the assay with HOP-92 NSCLC, 23 µM in the assay with SF-268 CNS and 25.6 µM in the assay with NCI-H460 lung.
Consider `O=C(N/N=C1\C(=O)N(c2nccs2)C(=O)C(=O)C1c1nc2ccccc2s1)c1ccccc1O` (stereo not given), for which the TGI in the assay with HCT-15 colon, in the assay on M19-MEL melanoma, in the assay on HT29 colon, in the assay with A549 NSCLC, with A498 renal and with LXFL 529 NSCLC was more than 100 µM each time. Moreover, the TGI with HOP-92 NSCLC, in the assay with SF-268 CNS and in the assay with NCI-H460 lung was more than 100 µM each time.
As for `CCOC(=O)C(CC/C=C\c1ccccc1)N1CCC[C@H]1C(=O)OC` (stereo not given in full), the TGI in the assay on M19-MEL melanoma, in the assay on HT29 colon, in the assay with A549 NSCLC, with A498 renal, in the assay on LXFL 529 NSCLC and in the assay with HOP-92 NSCLC was more than 100 µM each time. Besides, the TGI in the assay with SF-268 CNS and in the assay on NCI-H460 lung was more than 100 µM each time.
Consider `CCOC(=O)c1cnc2sc3ccc4ccccc4c3n2c1=O`, for which the total growth inhibition concentration (TGI) in the assay with HCT-15 colon, in the assay on M19-MEL melanoma, in the assay on HT29 colon, with A549 NSCLC, with LXFL 529 NSCLC and with HOP-92 NSCLC was more than 100 µM throughout. The TGI in the assay on SF-268 CNS and in the assay on NCI-H460 lung was more than 100 µM each time.
For the compound `CC1=C(/C=C/C(C)=C/C=C/C(C)=C/C(=O)O)C(C)(C)CCC1`, the TGI in the assay with HCT-15 colon is 70.3 µM; in the assay on HS 578T breast, more than 81 µM; in the assay on M19-MEL melanoma it was more than 100 µM; with HT29 colon, 68.3 µM; in the assay on A549 NSCLC, more than 79.4 µM; in the assay with A498 renal, more than 91.1 µM. Also, the TGI with LXFL 529 NSCLC was more than 100 µM; in the assay on HOP-92 NSCLC, more than 83.4 µM; in the assay on SF-268 CNS, more than 75.1 µM; in the assay on NCI-H460 lung, 70.5 µM.
In the case of `O=C(CC(=O)c1cccc2ccccc12)C(=O)NC1C2CC3CC(C2)CC1C3` (stereo not given), the TGI with HCT-15 colon, with M19-MEL melanoma, in the assay with HT29 colon, in the assay with A549 NSCLC, in the assay with A498 renal and with LXFL 529 NSCLC was more than 100 µM each time. The TGI in the assay on HOP-92 NSCLC, in the assay with SF-268 CNS and in the assay on NCI-H460 lung was more than 100 µM each time.
Take `Cc1cccc(C(C)(C)C)c1NC(=O)CCc1nc(=S)[nH][nH]1`: the TGI in the assay on HCT-15 colon, with M19-MEL melanoma, in the assay with HT29 colon, with A549 NSCLC, in the assay on A498 renal and with LXFL 529 NSCLC was more than 100 µM each time. The TGI with HOP-92 NSCLC, in the assay on SF-268 CNS and in the assay with NCI-H460 lung was more than 100 µM throughout.
With `COc1ccc2oc(C(=O)O)c3c2c1CCC3CCC(=O)O` (stereo not given), the TGI in the assay on M19-MEL melanoma, in the assay with HT29 colon, in the assay with A549 NSCLC, in the assay on A498 renal, in the assay on LXFL 529 NSCLC and in the assay on HOP-92 NSCLC was more than 100 µM each time. The TGI with SF-268 CNS and with NCI-H460 lung was more than 100 µM throughout.

For the origin of these results see PubChem BioAssay (NCI).
